This is an account of results in patent US8470370B2, “Controlled release formulations” (Aegis Therapeutics, LLC, priority 2007, dated 2013).

Series [1] in a line: Curcumin concentration in tetradecylmaltoside hydrogel versus solubility in water. Type of series: physicochemical. The text has this: Curcumin was also used in the preparation of hydrogels. Curcumin is a natural product isolated from the root of Curcuma longa from which the spice turmeric is obtained. It has been reported to have potent antioxidative, anti-inflammatory and antiseptic properties, but has extremely low solubility in water and poor bioavailability which limits its pharmaceutical use. By encapsulating curcumin in a hydrogel composed of 2% tetradecylmaltoside a concentration of the compound in the gel can be obtained which is about 33,000 times higher than the solubility of curcumin in water, for example, 1×10^−3 M in the hydrogel vs. 3×10^−8 M in water. The resulting gels are yellow or yellow-orange in color depending on whether sodium bicarbonate is present during the formulation of the gel (see FIG. 13). FIG. 13 is a pictorial representation showing hydrogels of curcumin. Sample E-2 is a hydrogel composed of 2% tetradecylmaltoside and 1 mM curcumin. Sample F-2 is a hydrogel composed of 2% tetradecylmaltoside, 1 mM curcumin, and 0.1 M sodium bicarbonate.

Series [2] in a line: Solubility of folic acid in water and 0.1 M sodium bicarbonate. Type of series: physicochemical. As to the method: FIGS. 20 and 21 show several examples of these hydrogels. A-4 is a hydrogel of 2% sucrose stearate/sucrose distearate containing 2.5 mg/ml of folic acid. […] F-4 is a similar hydrogel containing 1 mM curcumin formed from 2% sucrose stearate/sucrose distearate in 0.1M sodium bicarbonate again after heating to 45 degrees C., vortexing to distribute the curcumin and letting the hydrogel form upon cooling to room temperature.

On to `COc1cc(/C=C/C(=O)CC(=O)/C=C/c2ccc(O)c(OC)c2)ccc1O` [curcumin], for which, in series [1] (2% tetradecylmaltoside hydrogel), the “concentration of curcumin in the hydrogel” value was 1000 µM. Besides, in series [1] (2% tetradecylmaltoside hydrogel vs water), the “concentration in gel relative to solubility in water” value is recorded as “about 33,000 times”.
Take `Nc1nc2ncc(CNc3ccc(C(=O)N[C@@H](CCC(=O)O)C(=O)O)cc3)nc2c(=O)[nH]1` [Folic acid, folic acid]: the “solubility of folic acid” value in series [2] (0.1 M sodium bicarbonate, 2.5 mg/ml for sample B-5) is given as “completely dissolves”; in series [2] (water, 2.5 mg/ml for sample A-5) it was “poorly soluble”.
